The source of these data is US12599672B2, “KRAS proteolysis targeting chimeras” (PAQ Therapeutics Inc., priority 2023, dated 2026).

Common to all, as to format: cell-based
In experiment [1] the target is T1, KRAS (Homo sapiens, UniProt P01116).
T1 construct: endogenous in cells; host or cells: KE39 (KRAS amplified) cells
Put plainly: KRASamp MSD assay. The settings on record: KE39 (KRAS amplified) cells, treated with test compounds for 24 hr, MSD readout of KRAS degradation. Summed up: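 Degradation DC50 derived by curve fitting, with KRAS levels quantified by MSD electrochemiluminescence (capture/detection antibodies, recombinant WT KRAS standard). Lysates prepared from KE39 cells (KRAS amplified) exposed to test compounds for 24 hr.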

Experiment [2] deals with T2, KRAS G12V (Homo sapiens, UniProt P01116, G12V).
T2 construct: SW620-KRAS (G12V)-HiBit-KI cell (Pharmaron); host or cells: SW620-KRAS (G12V)-HiBit-KI cells (HiBiT knock-in at the endogenous KRAS locus)
Put plainly: KRAS G12V HiBit assay. The settings on record: SW620-KRAS (G12V)-HiBit-KI cells, compound treatment for 24 hours, class symbols. Summed up:
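Luminescence from lytic Nano-Glo HiBiT detection with LgBiT read KRAS G12V levels after 24 h compound exposure. Dilutions were 10-point, 3-fold, from a 0.3 mM DMSO stock. Degradation activity was normalised to cells given 0.1% DMSO alone.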

Experiment [3] has as its target T3, KRAS G12D (Homo sapiens, UniProt P01116, G12D).
T3 construct: AsPc-1-KRAS (G12D)-HiBit-KI cell (Pharmaron); host or cells: AsPc-1-KRAS (G12D)-HiBit-KI cells (HiBiT knock-in at the endogenous KRAS locus)
Put plainly: KRAS G12D HiBit assay. The note with it: AsPc-1-KRAS (G12D)-HiBit-KI cell, compound treatment for 24 hours; for DC50: absolute DC50. The method in brief: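 HiBiT luminescence, detected by adding lytic buffer, substrate and LgBiT protein, served as the KRAS G12D read-out. Compounds, serially diluted 3-fold over 10 points from 0.3 mM DMSO stock, were on cells for 24 h; percent inhibition normalized to cells given 0.1% DMSO only.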

The mark [4] stands for this setting: numeric bounds given in place of class symbols.

T2 sequence (P01116 1-188 isoform P01116-2 G12V): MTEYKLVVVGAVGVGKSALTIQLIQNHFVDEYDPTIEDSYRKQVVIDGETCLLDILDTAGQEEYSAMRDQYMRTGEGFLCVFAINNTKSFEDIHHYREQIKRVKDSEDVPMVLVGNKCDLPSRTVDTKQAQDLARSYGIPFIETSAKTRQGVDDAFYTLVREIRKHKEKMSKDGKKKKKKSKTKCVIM
T1 sequence (P01116 1-188 isoform P01116-2): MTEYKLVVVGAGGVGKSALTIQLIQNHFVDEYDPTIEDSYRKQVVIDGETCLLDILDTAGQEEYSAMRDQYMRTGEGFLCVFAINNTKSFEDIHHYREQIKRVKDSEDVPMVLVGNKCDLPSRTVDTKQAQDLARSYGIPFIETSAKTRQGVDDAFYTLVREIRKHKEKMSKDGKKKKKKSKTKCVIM
T3 sequence (P01116 1-188 isoform P01116-2 G12D): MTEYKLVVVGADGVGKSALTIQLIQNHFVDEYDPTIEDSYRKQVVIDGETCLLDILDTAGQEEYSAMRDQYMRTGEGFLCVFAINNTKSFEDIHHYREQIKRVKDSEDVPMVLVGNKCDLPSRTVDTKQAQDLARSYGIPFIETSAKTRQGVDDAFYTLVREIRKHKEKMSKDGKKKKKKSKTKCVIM

Take `C#Cc1c(F)ccc2cc(O)cc(-c3ncc4c(N5CCC[C@@](C)(O)C5)nc(OC[C@@]56CCCN5[C@H](COC(=O)N5CCC57CCN(C5CCN(c8ccc9c(c8)n(C)c(=O)n9C8CCC(=O)NC8=O)CC5)CC7)CC6)nc4c3F)c12` (stereo partly drawn) [Compound 326, ((3S,7aS)-7a-(((7-(8-ethynyl-7-fluoro-3-hydroxynaphthalen-1-yl)-8-fluoro-4-((R)-3-hydroxy-3-methylpiperidin-1-yl)pyrido[4,3-d]pyrimidin-2-yl)oxy)methyl)hexahydro-1H-pyrrolizin-3-yl)methyl 7-(1-(1-(2,6-dioxopiperidin-3-yl)-3-methyl-2-oxo-2,3-dihydro-1H-benzo[d]imidazol-5-yl)piperidin-4-yl)-1,7-diazaspiro[3.5]nonane-1-carboxylate]: the results for the DC50 in experiment [1], in experiment [2] and in experiment [3] (setting [4]) were at least 10 nM, above 100 nM and above 100 nM, respectively.

On to `CCc1cccc2cc(O)cc(-c3cc4nc(OC[C@@]56CCCN5[C@H](COC(=O)N5CCC(CN7CCC(c8ccc9c(c8)n(C)c(=O)n9C8CCC(=O)NC8=O)CC7)CC5)CC6)nc(N5CCC[C@@](C)(O)C5)c4cn3)c12` (stereo partly drawn) [Compound 378, ((3S,7aS)-7a-(((7-(8-ethyl-3-hydroxynaphthalen-1-yl)-4-((R)-3-hydroxy-3-methylpiperidin-1-yl)pyrido[4,3-d]pyrimidin-2-yl)oxy)methyl)hexahydro-1H-pyrrolizin-3-yl)methyl 4-((4-(1-(2,6-dioxopiperidin-3-yl)-3-methyl-2-oxo-2,3-dihydro-1H-benzo[d]imidazol-5-yl)piperidin-1-yl)methyl)piperidine-1-carboxylate], for which the DC50 in experiment [1] was below 1 nM; in experiment [2], below 10 nM; in experiment [3] (class symbols), below 100 nM.

For `CCc1c(F)ccc2cc(O)cc(-c3ncc4c(N5CCC[C@@](C)(O)C5)nc(OC[C@@]56CCCN5[C@H](COC(=O)N5CCC(CN7CCC(c8cc9c(cc8F)c(C8CCC(=O)NC8=O)nn9C)CC7)CC5)CC6)nc4c3F)c12` (stereo partly drawn) [Compound 102, ((3S,7aS)-7a-(((7-(8-ethyl-7-fluoro-3-hydroxynaphthalen-1-yl)-8-fluoro-4-((R)-3-hydroxy-3-methylpiperidin-1-yl)pyrido[4,3-d]pyrimidin-2-yl)oxy)methyl)hexahydro-1H-pyrrolizin-3-yl)methyl4-((4-(3-(2,6-dioxopiperidin-3-yl)-5-fluoro-1-methyl-1H-indazol-6-yl)piperidin-1-yl)methyl) piperidine-1-carboxylate], the DC50 in experiment [1] was below 1 nM; in experiment [2], below 10 nM; in experiment [3] (class symbols), below 100 nM. In experiment [3] (class symbols), the Dmax was above 50%.

Take `C#Cc1c(F)ccc2cccc(-c3ncc4c(N5CCC[C@@](C)(O)C5)nc(OCC5(CN6CCN(CC7CCN(c8ccc9c(c8)C(=O)N(C8CCC(=O)NC8=O)C9=O)CC7)CC6)CC5)nc4c3F)c12` (some centres unmarked) [Compound 55]: the DC50 in experiment [1] is at least 10 nM; in experiment [2] it was above 100 nM; in experiment [3] (class symbols) it was below 100 nM.

As for `C#Cc1c(F)ccc2cc(O)cc(-c3ncc4c(N5CCC[C@@](C)(O)C5)nc(OC[C@@]56CCCN5[C@H](COC(=O)NC5CN(C7CCN(c8ccc9c(c8)n(C)c(=O)n9C8CCC(=O)NC8=O)CC7)C5)CC6)nc4c3F)c12` (stereo partly drawn) [Compound 325, ((3S,7aS)-7a-(((7-(8-ethynyl-7-fluoro-3-hydroxynaphthalen-1-yl)-8-fluoro-4-((R)-3-hydroxy-3-methylpiperidin-1-yl)pyrido[4,3-d]pyrimidin-2-yl)oxy)methyl)hexahydro-1H-pyrrolizin-3-yl)methyl (1-(1-(1-(2,6-dioxopiperidin-3-yl)-3-methyl-2-oxo-2,3-dihydro-1H-benzo[d]imidazol-5-yl)piperidin-4-yl)azetidin-3-yl)carbamate], the DC50 is at least 10 nM in experiment [1], above 100 nM in experiment [2] and above 100 nM in experiment [3] (setting [4]).

`CCc1c(F)ccc2cc(O)cc(-c3ncc4c(N5CCC[C@@](C)(O)C5)nc(OC[C@@]56CCCN5[C@H](COC(=O)N5CCC(F)(CN7CCC(c8ccc9c(c8)n(C)c(=O)n9C8CCC(=O)NC8=O)CC7)CC5)CC6)nc4c3F)c12` (stereo partly drawn) [Compound 156, ((3S,7AS)-7a-(((7-(8-ethyl-7-fluoro-3-hydroxynaphthalen-1-yl)-8-fluoro-4-((R)-3-hydroxy-3-methylpiperidin-1-yl)pyrido[4,3-d]pyrimidin-2-yl)oxy)methyl)hexahydro-1H-pyrrolizin-3-yl)methyl 4-((4-(1-(2,6-dioxopiperidin-3-yl)-3-methyl-2-oxo-2,3-dihydro-1H-benzo[d]imidazol-5-yl)piperidin-1-yl)methyl)-4-fluoropiperidine-1-carboxylate]: the DC50 in experiment [1] is below 1 nM; in experiment [2] it was below 10 nM; in experiment [3] (class symbols), below 100 nM.

For the compound `CCc1c(F)ccc2cc(O)cc(-c3ncc4c(N5CCC[C@@](C)(O)C5)nc(OC[C@@]56CCCN5[C@H](COC(=O)N5CC7(CC(CN8CCC(c9ccc%10c(c9)n(C)c(=O)n%10C9CCC(=O)NC9=O)CC8)C7)C5)CC6)nc4c3F)c12` (stereo partly drawn) [Compound 396, ((3S,7aS)-7a-(((7-(8-ethyl-7-fluoro-3-hydroxynaphthalen-1-yl)-8-fluoro-4-((R)-3-hydroxy-3-methylpiperidin-1-yl)pyrido[4,3-d]pyrimidin-2-yl)oxy)methyl)hexahydro-1H-pyrrolizin-3-yl)methyl 6-((4-(1-(2,6-dioxopiperidin-3-yl)-3-methyl-2-oxo-2,3-dihydro-1H-benzo[d]imidazol-5-yl)piperidin-1-yl)methyl)-2-azaspiro[3.3]heptane-2-carboxylate], the DC50 in experiment [1] was below 1 nM; in experiment [2], below 10 nM; in experiment [3] (class symbols), below 100 nM.

As to `CCc1c(F)ccc2cc(O)cc(-c3ncc4c(N5CCC[C@@](C)(O)C5)nc(OC[C@@]56CCCN5[C@H](COC(=O)N5CCC7(CCC(N8CCC(c9ccc%10c(c9)n(C)c(=O)n%10C9CCC(=O)NC9=O)CC8)C7)CC5)CC6)nc4c3F)c12` (stereo partly drawn) [Compound 455, ((3S,7aS)-7a-(((7-(8-ethyl-7-fluoro-3-hydroxynaphthalen-1-yl)-8-fluoro-4-((R)-3-hydroxy-3-methylpiperidin-1-yl)pyrido[4,3-d]pyrimidin-2-yl)oxy)methyl)hexahydro-1H-pyrrolizin-3-yl)methyl 2-(4-(1-(2,6-dioxopiperidin-3-yl)-3-methyl-2-oxo-2,3-dihydro-1H-benzo[d]imidazol-5-yl)piperidin-1-yl)-8-azaspiro[4.5]decane-8-carboxylate], the DC50 in experiment [1] is below 1 nM; in experiment [2] it was below 10 nM; in experiment [3] (class symbols) it was below 100 nM.

For `CCc1c(F)ccc2cc(O)cc(-c3ncc4c(N5CCC[C@@](C)(O)C5)nc(OC[C@@]56CCCN5[C@H](COC(=O)N5CCC(CN7CCC(c8ccc9c(C%10CCC(=O)NC%10=O)nn(C)c9c8)CC7)CC5)CC6)nc4c3F)c12` (stereo partly drawn) [Compound 99, [(3S,8S)-8-[[7-(8-ethyl-7-fluoro-3-hydroxy-1-naphthyl)-8-fluoro-4-[(3R)-3-hydroxy-3-methyl-1-piperidyl]pyrido[4,3-d]pyrimidin-2-yl]oxymethyl]-1,2,3,5,6,7-hexahydropyrrolizin-3-yl]methyl 4-[[4-[3-(2,6-dioxo-3-piperidyl)-1-methyl-indazol-6-yl]-1-piperidyl]methyl]piperidine-1-carboxylate], the figures for the DC50 in experiment [1], in experiment [2] and in experiment [3] (class symbols) were below 1 nM, below 10 nM and below 100 nM, respectively. This compound also gave a Dmax in experiment [3] (class symbols) above 50%.

`CCc1c(F)ccc2cc(O)cc(-c3ncc4c(N5CCC[C@@](C)(O)C5)nc(OC[C@@]56CCCN5[C@H](COC(=O)N5C7CCC5CC(CN5CCC(c8ccc9c(c8)n(C)c(=O)n9C8CCC(=O)NC8=O)CC5)C7)CC6)nc4c3F)c12` (stereo partly drawn) [Compound 392, ((3S,7aS)-7a-(((7-(8-ethyl-7-fluoro-3-hydroxynaphthalen-1-yl)-8-fluoro-4-((R)-3-hydroxy-3-methylpiperidin-1-yl)pyrido[4,3-d]pyrimidin-2-yl)oxy)methyl)hexahydro-1H-pyrrolizin-3-yl)methyl 3-((4-(1-(2,6-dioxopiperidin-3-yl)-3-methyl-2-oxo-2,3-dihydro-1H-benzo[d]imidazol-5-yl)piperidin-1-yl)methyl)-8-azabicyclo[3.2.1]octane-8-carboxylate]: the DC50 in experiment [1] was below 1 nM; in experiment [2], below 10 nM; in experiment [3] (class symbols) it was below 100 nM.
